Holding throughout (type): in vivo, human
The nature of test [1]: Fasting blood glucose (FBG), Accu-Chek, T2DM patient on Glibenclamide with inulin (Examples 1 and 3). As for the experimental part:
(§1) Other similar devices can also be used.
The efficacy of inulin on Glibenclamide therapy was investigated. Several years prior to inulin combination therapy, patient's FBG fluctuated drastically and was uncontrolled around 10 mmol/L. Their cholesterol and triglyceride were also very high (Table 2). FIG. 1 depicts the monthly FBG average at indicated time points. Conditions of treatments are described below: • January 2007: Patient's endocrinologist increased the Glibenclamide dose from 2×5 mg to 3×5 mg per day. […] For the first time they were diagnosed with Atrial fibrillation and prescribed with Warfarin. […] Low FBG assisted in excellent recovery. • March 2009: Inulin supply became unavailable.
The patient, as described above in Example 1, was switched over to inulin (Orafti), and combination therapy with Glibenclaminde (5 mg, three times daily) continued following a similar protocol as described above except that the patient received 15 gr/day of inulin (Orafti).

The nature of test [2]: FBG, HA1c and lipid profiles by independent pathology laboratory, Example 1 patient (Table 2). To be noted: Nov. 5, 2006; prior to inulin.
Text: as §1

Test [3] in a line: FBG, T2DM patient on Gliclazide with inulin (Example 2). As for the experimental part:
as §1
Another patient, who was under Gliclazide therapy (30 mg, once daily) for nearly a decade with uncontrolled blood glucose levels above 9 mmol/L, also began the combination therapy with inulin (JLS). Various blood parameter measurements were as described in Example 1.

The values that follow come from US9241952B2, “Method of treating type II diabetes, hyperglycemia or hypoglycemia by administering a synergistic combination of a sulphonylurea and inulin” (OZSTAR THERAPEUTICS PTY LTD, priority 2010, dated 2016).

As to `COc1ccc(Cl)cc1C(=O)NCCc1ccc(S(=O)(=O)NC(=O)NC2CCCCC2)cc1` [Glibenclamide], in test [1] (February 2007, Glibenclamide 3×5 mg per day), the “average FBG” value is given as 6 mmol/L. For the same compound, the “average FBG” value in test [1] (January 2007, Glibenclamide 2×5 mg per day) is listed as 7.8 mmol/L. In test [1] (by October 2009, inulin unavailable from March 2009), the FBG was approximately 7.5 mmol/L. Moreover, the FBG result in test [1] (several years prior to inulin combination therapy, uncontrolled) is “around 10 mmol/L”. In addition, in test [2], the Cholesterol turned out to be 6.2 mmol/L, the “Fasting Glucose” value amounted to 10 mmol/L and the Triglyceride was 4 mmol/L.

On to `Cc1ccc(S(=O)(=O)NC(=O)NN2CC3CCCC3C2)cc1` (stereo not drawn) [Gliclazide], for which the blood glucose levels result in test [3] (Gliclazide 30 mg once daily for nearly a decade, uncontrolled) is on record as “above 9 mmol/L”. In addition, the FBG level in test [3] (Gliclazide 30 mg once daily, before inulin, ± SEM) amounted to 9.4 ± 1.82 mmol/L.
